# ChEMBL document CHEMBL2440076, “New triarylpyrazoles as broad-spectrum anticancer agents: design, synthesis, and biological evaluation” (Eur J Med Chem, 2013)
# Tests used:
# OVCAR-4 = assay: Growth inhibition of human OVCAR4 cells after 48 hrs by sulforhodamine B assay; assay type: functional; conditions: OVCAR-4, 48 h
# UO-31 = assay: Growth inhibition of human UO31 cells assessed as cell growth at 10 uM after 48 hrs by sulforhodamine B assay; assay type: functional; conditions: UO-31, 48 h, read-out: Activity
# SK-MEL-5 [1] = assay: Growth inhibition of human SK-MEL-5 cells assessed as cell growth at 10 uM after 48 hrs by sulforhodamine B assay; assay type: functional; conditions: SK-MEL-5, 48 h, read-out: Activity
# 786-0 = assay: Growth inhibition of human 786-0 cells after 48 hrs by sulforhodamine B assay; assay type: functional; conditions: 786-0, 48 h; for CC50: read-out: LC50 (the source's name)
# RPMI-8226 [2] = assay: Growth inhibition of human RPMI8226 cells assessed as cell growth at 10 uM after 48 hrs by sulforhodamine B assay; assay type: functional; conditions: RPMI-8226, 48 h, read-out: Activity
# OVCAR-8 [3] = assay: Growth inhibition of human OVCAR8 cells after 48 hrs by sulforhodamine B assay; assay type: functional; conditions: OVCAR-8, 48 h; for CC50: read-out: LC50 (the source's name)
# UACC-257 = assay: Growth inhibition of human UACC257 cells assessed as cell growth at 10 uM after 48 hrs by sulforhodamine B assay; assay type: functional; conditions: UACC-257, 48 h, read-out: Activity
# IGROV-1 = assay: Growth inhibition of human IGROV1 cells assessed as cell growth at 10 uM after 48 hrs by sulforhodamine B assay; assay type: functional; conditions: IGROV-1, 48 h, read-out: Activity
# K562 = assay: Growth inhibition of human K562 cells assessed as cell growth at 10 uM after 48 hrs by sulforhodamine B assay; assay type: functional; conditions: K562, 48 h, read-out: Activity
# T47D = assay: Growth inhibition of human T47D cells assessed as cell growth at 10 uM after 48 hrs by sulforhodamine B assay; assay type: functional; conditions: read-out: Activity
# UACC-62 = assay: Growth inhibition of human UACC62 cells assessed as cell growth at 10 uM after 48 hrs by sulforhodamine B assay; assay type: functional; conditions: UACC-62, 48 h, read-out: Activity
# SK-MEL-5 [4] = assay: Growth inhibition of human SK-MEL-5 cells after 48 hrs by sulforhodamine B assay; assay type: functional; conditions: SK-MEL-5, 48 h
# OVCAR-3 = assay: Growth inhibition of human OVCAR3 cells after 48 hrs by sulforhodamine B assay; assay type: functional, cell-based; conditions: OVCAR-3, 48 h; for CC50: read-out: LC50 (the source's name)
# SW-620 = assay: Growth inhibition of human SW620 cells after 48 hrs by sulforhodamine B assay; assay type: functional; conditions: SW-620, 48 h; for CC50: read-out: LC50 (the source's name)
# CCRF-CEM = assay: Growth inhibition of human CCRF-CEM cells after 48 hrs by sulforhodamine B assay; assay type: functional
# NCI-H460 = assay: Growth inhibition of human NCI-H460 cells assessed as cell growth at 10 uM after 48 hrs by sulforhodamine B assay; assay type: functional; conditions: NCI-H460, 48 h, read-out: Activity
# OVCAR-8 [5] = assay: Growth inhibition of human OVCAR8 cells assessed as cell growth at 10 uM after 48 hrs by sulforhodamine B assay; assay type: functional; conditions: OVCAR-8, 48 h, read-out: Activity
# RXF 393 = assay: Growth inhibition of human RXF393 cells assessed as cell growth at 10 uM after 48 hrs by sulforhodamine B assay; assay type: functional; conditions: RXF 393, 48 h, read-out: Activity
# MOLT-4 = assay: Growth inhibition of human MOLT4 cells assessed as cell growth at 10 uM after 48 hrs by sulforhodamine B assay; assay type: functional; conditions: MOLT-4, 48 h, read-out: Activity
# CAKI-1 = assay: Growth inhibition of human CAKI-1 cells after 48 hrs by sulforhodamine B assay; assay type: functional; conditions: CAKI-1, 48 h; for CC50: read-out: LC50 (the source's name)
# Malme-3M = assay: Growth inhibition of human MALME-3M cells assessed as cell growth at 10 uM after 48 hrs by sulforhodamine B assay; assay type: functional; conditions: read-out: Activity
# OVCAR-5 = assay: Growth inhibition of human OVCAR5 cells assessed as cell growth at 10 uM after 48 hrs by sulforhodamine B assay; assay type: functional; conditions: OVCAR-5, 48 h, read-out: Activity
# SF-539 = assay: Growth inhibition of human SF539 cells assessed as cell growth at 10 uM after 48 hrs by sulforhodamine B assay; assay type: functional; conditions: SF-539, 48 h, read-out: Activity
# RPMI-8226 [6] = assay: Growth inhibition of human RPMI8226 cells after 48 hrs by sulforhodamine B assay; assay type: functional, cell-based; conditions: RPMI-8226, 48 h; for CC50: read-out: LC50 (the source's name)
# MDA-MB-468 [7] = assay: Growth inhibition of human MDA-MB-468 cells assessed as cell growth at 10 uM after 48 hrs by sulforhodamine B assay; assay type: functional; conditions: MDA-MB-468, 48 h, read-out: Activity
# NCI-H226 = assay: Growth inhibition of human NCI-H226 cells assessed as cell growth at 10 uM after 48 hrs by sulforhodamine B assay; assay type: functional; conditions: NCI-H226, 48 h, read-out: Activity
# SN12C = assay: Growth inhibition of human SN12C cells assessed as cell growth at 10 uM after 48 hrs by sulforhodamine B assay; assay type: functional; conditions: read-out: Activity
# TK-10 = assay: Growth inhibition of human TK10 cells after 48 hrs by sulforhodamine B assay; assay type: functional; conditions: TK-10, 48 h; for CC50: read-out: LC50 (the source's name)
# HOP-92 = assay: Growth inhibition of human HOP92 cells after 48 hrs by sulforhodamine B assay; assay type: functional, cell-based; conditions: HOP-92, 48 h
# MDA-MB-468 [8] = assay: Growth inhibition of human MDA-MB-468 cells after 48 hrs by sulforhodamine B assay; assay type: functional, cell-based; conditions: MDA-MB-468, 48 h; for CC50: read-out: LC50 (the source's name)
# NCI-H522 = assay: Growth inhibition of human NCI-H522 cells after 48 hrs by sulforhodamine B assay; assay type: functional; conditions: NCI-H522, 48 h
# HL-60(TB) = assay: Growth inhibition of human HL-60(TB) cells after 48 hrs by sulforhodamine B assay; assay type: functional; conditions: HL-60, 48 h; for CC50: read-out: LC50 (the source's name)
# SK-OV-3 = assay: Growth inhibition of human SKOV3 cells after 48 hrs by sulforhodamine B assay; assay type: functional; conditions: SK-OV-3, 48 h; for CC50: read-out: LC50 (the source's name)
compound,measurement,setting,value
COc1cc(-c2nn(-c3cccc(NC(=O)Nc4cccc(C(F)(F)F)c4)c3)cc2-c2ccncc2)ccc1Cl,GI50,OVCAR-4,1100 nM
same,LC50 (concentration killing 50% of cells),OVCAR-4,> 50000 nM
same,TGI,OVCAR-4,2100 nM
same,growth at 10 µM,UO-31,7.94%
same,growth at 10 µM,SK-MEL-5 [1],-97.8%
same,GI50,786-0,1280 nM
same,TGI,786-0,4050 nM
same,CC50,786-0,> 50000 nM
same,growth at 10 µM,RPMI-8226 [2],-14.8%
same,GI50,OVCAR-8 [3],739 nM
same,TGI,OVCAR-8 [3],2700 nM
same,CC50,OVCAR-8 [3],> 50000 nM
same,growth at 10 µM,UACC-257,-52.9%
same,growth at 10 µM,IGROV-1,14%
same,growth at 10 µM,K562,1.6%
same,growth at 10 µM,T47D,-4.03%
same,growth at 10 µM,UACC-62,-76.1%
same,GI50,SK-MEL-5 [4],720 nM
same,LC50 (concentration killing 50% of cells),SK-MEL-5 [4],2680 nM
same,TGI,SK-MEL-5 [4],1390 nM
same,GI50,OVCAR-3,579 nM
same,IC50,OVCAR-3,580 nM
same,TGI,OVCAR-3,1870 nM
same,CC50,OVCAR-3,24700 nM
same,GI50,SW-620,1230 nM
same,TGI,SW-620,14300 nM
same,CC50,SW-620,50000 nM
same,GI50,CCRF-CEM,945 nM
same,LC50,CCRF-CEM,> 50000 nM
same,growth at 10 µM,NCI-H460,-7.91%
same,growth at 10 µM,OVCAR-8 [5],-36.2%
same,growth at 10 µM,RXF 393,-69.8%
same,growth at 10 µM,MOLT-4,-26.3%
same,GI50,CAKI-1,1030 nM
same,TGI,CAKI-1,3510 nM
same,CC50,CAKI-1,> 50000 nM
same,growth at 10 µM,Malme-3M,-32.1%
same,growth at 10 µM,OVCAR-5,28.2%
same,growth at 10 µM,SF-539,-34.2%
same,GI50,RPMI-8226 [6],340 nM
same,IC50,RPMI-8226 [6],340 nM
same,TGI,RPMI-8226 [6],3120 nM
same,CC50,RPMI-8226 [6],> 50000 nM
same,growth at 10 µM,MDA-MB-468 [7],-27.6%
same,growth at 10 µM,NCI-H226,4.3%
same,growth at 10 µM,SN12C,7.22%
same,GI50,TK-10,1310 nM
same,TGI,TK-10,19000 nM
same,CC50,TK-10,> 50000 nM
same,GI50,HOP-92,557 nM
same,IC50,HOP-92,560 nM
same,LC50,HOP-92,> 50000 nM
same,TGI,HOP-92,1770 nM
same,GI50,MDA-MB-468 [8],598 nM
same,IC50,MDA-MB-468 [8],600 nM
same,TGI,MDA-MB-468 [8],2160 nM
same,CC50,MDA-MB-468 [8],50000 nM
same,GI50,NCI-H522,714 nM
same,LC50 (concentration killing 50% of cells),NCI-H522,> 50000 nM
same,TGI,NCI-H522,2430 nM
same,GI50,HL-60(TB),1370 nM
same,TGI,HL-60(TB),> 50000 nM
same,CC50,HL-60(TB),> 50000 nM
same,GI50,SK-OV-3,2020 nM
same,TGI,SK-OV-3,> 50000 nM
same,CC50,SK-OV-3,> 50000 nM
COc1cc(-c2nn(-c3cccc(NC(=O)c4ccc(N5CCOCC5)c(C(F)(F)F)c4)c3)cc2-c2ccncc2)ccc1Cl,GI50,OVCAR-4,957 nM
same,LC50 (concentration killing 50% of cells),OVCAR-4,> 100000 nM
same,TGI,OVCAR-4,> 100000 nM
same,growth at 10 µM,UO-31,24.6%
same,growth at 10 µM,SK-MEL-5 [1],3.41%
same,GI50,786-0,819 nM
same,CC50,786-0,> 100000 nM
same,growth at 10 µM,RPMI-8226 [2],8.3%
same,GI50,OVCAR-8 [3],468 nM
same,TGI,OVCAR-8 [3],> 100000 nM
same,CC50,OVCAR-8 [3],> 100000 nM
same,growth at 10 µM,UACC-257,24.3%
same,growth at 10 µM,IGROV-1,41.8%
same,growth at 10 µM,K562,1.22%
same,growth at 10 µM,T47D,27.5%
same,growth at 10 µM,UACC-62,8.35%
same,GI50,SK-MEL-5 [4],112 nM
same,LC50 (concentration killing 50% of cells),SK-MEL-5 [4],7640 nM
same,TGI,SK-MEL-5 [4],675 nM
same,GI50,OVCAR-3,222 nM
same,IC50,OVCAR-3,220 nM
same,TGI,OVCAR-3,1030 nM
same,CC50,OVCAR-3,> 100000 nM
same,GI50,SW-620,241 nM
same,TGI,SW-620,> 100000 nM
same,CC50,SW-620,> 100000 nM
same,GI50,CCRF-CEM,236 nM
same,LC50,CCRF-CEM,> 100000 nM
same,TGI,CCRF-CEM,> 100000 nM
same,growth at 10 µM,NCI-H460,5.02%
same,growth at 10 µM,OVCAR-8 [5],5.23%
same,growth at 10 µM,RXF 393,-45.2%
same,growth at 10 µM,MOLT-4,4.07%
same,GI50,CAKI-1,360 nM
same,TGI,CAKI-1,8120 nM
same,CC50,CAKI-1,> 100000 nM
same,growth at 10 µM,Malme-3M,36.2%
same,growth at 10 µM,OVCAR-5,34.7%
same,growth at 10 µM,SF-539,-68.9%
same,GI50,RPMI-8226 [6],339 nM
same,IC50,RPMI-8226 [6],340 nM
same,TGI,RPMI-8226 [6],> 100000 nM
same,CC50,RPMI-8226 [6],> 100000 nM
same,growth at 10 µM,MDA-MB-468 [7],-37.8%
same,growth at 10 µM,NCI-H226,42.5%
same,growth at 10 µM,SN12C,31%
same,GI50,TK-10,1490 nM
same,TGI,TK-10,45300 nM
same,CC50,TK-10,> 100000 nM
same,GI50,HOP-92,124 nM
same,IC50,HOP-92,120 nM
same,LC50,HOP-92,> 100000 nM
same,TGI,HOP-92,813 nM
same,GI50,MDA-MB-468 [8],183 nM
same,IC50,MDA-MB-468 [8],180 nM
same,TGI,MDA-MB-468 [8],781 nM
same,CC50,MDA-MB-468 [8],5530 nM
same,GI50,NCI-H522,107 nM
same,LC50 (concentration killing 50% of cells),NCI-H522,> 100000 nM
same,TGI,NCI-H522,3530 nM
same,GI50,HL-60(TB),298 nM
same,TGI,HL-60(TB),> 100000 nM
same,CC50,HL-60(TB),> 100000 nM
same,GI50,SK-OV-3,340 nM
same,TGI,SK-OV-3,4730 nM
same,CC50,SK-OV-3,> 100000 nM
